Test results as given in patent publication US6376710B2, “Amidine compounds and their use as pesticides” (Sumitomo Chemical Co., Ltd., priority 2000, dated 2002).
Like-named read-outs stand apart in the source and are kept apart here.

Tests used:
Assay type in all cases: in vivo
[1] = system: house fly (Musca domeestica); assay: Test Example 3: treated filter paper with sucrose bait, house fly female adults, mortality; settings: 24 h
Experimental: On the bottom of a polyethylene cup of 5.5 cm in diameter was placed a filter paper of the same size, to which a water dilution (500 ppm) of each of the formulations obtained from present compounds 1, 2, 3, 4, 5, 6, 7, 8, 9, 10, 11, 12, 13, 14, 15, 16, 17, 18, 19, 20, 21, 25, 26, 27, 28, 29, 32, 33, 34, 35, 36, 37, 38, 39, 40, 41, 42, 43, 44, 45, 47, 51, 52, 53, 54, 55, 60, and 61 according to Formulation Example 1 was added dropwise in an amount of 0.7 ml, and the cup was uniformly charged with about 30 mg of sucrose as a bait. Ten female adults of house fly (Musca domeestica) were set free in each cup, which was then kept covered. After 1 day, their survival was examined to determine the mortality.

[2] = system: German cockroach (Blattella germanica); assay: Test Example 2: treated filter paper with sucrose bait, German cockroach male adults, mortality; settings: 144 h
[3] = system: common mosquito (Culex pipiens pallens); assay: Test Example 4: treated water, common mosquito final-instar larvae, mortality; settings: 192 h
[4] = water dilution (500 ppm) of flowable (Formulation Example 1), 0.7 ml on filter paper, female adults, after 1 day, read-out: mortality
[5] = water dilution (500 ppm) of flowable (Formulation Example 1), 0.7 ml on filter paper, male adults, after 6 days, read-out: mortality
[6] = active ingredient 3.5 ppm in ion-exchanged water (0.7 ml of 500 ppm dilution), final-instar larvae, after 8 days, read-out: mortality

Row | SMILES | mortality at 500 µg/mL [1] [%] | mortality at 500 µg/mL [2] [%] | mortality at 3.5 ppm [3] [%] | mortality at 500 µg/mL [1, 4] [%] | mortality at 500 µg/mL [2, 5] [%] | mortality at 3.5 ppm [3, 6] [%]
1 | CN(C)C(=Nc1c(Cl)cc(C(F)(F)F)cc1Cl)C(F)(F)F [present compound 52, N′-(2,6-dichloro-4-trifluoromethylphenyl)-2,2,2-trifluoro-N,N-dimethylacetamidine] | 100 | 100 |  |  |  | 
2 | NC(=Nc1c([N+](=O)[O-])cc(C(F)(F)F)cc1[N+](=O)[O-])C(F)(F)C(F)(F)C(F)(F)C(F)F [present compound 38, N-(2,6-Dinitro-4-trifluoromethylphenyl)-2,2,3,3,4,4,5,5-octafluoropentanamidine] | 100 | 100 | 100 |  |  | 
3 | NC(=Nc1c(Cl)cc(C(F)(F)F)cc1Cl)C(F)(F)C(F)(F)F [present compound 4, N-(2,6-dichloro-4-trifluoromethylphenyl)-2,2,3,3,3-pentafluoropropionamidine] | 100 | 100 | 100 |  |  | 
4 | COC(=O)NC(=Nc1c(Cl)cc(C(F)(F)F)cc1Cl)C(F)(F)C(F)(F)F [present compound 60, [1-(2,6-dichloro-4-trifluoromethylphenylimino)-2,2,3,3,3-pentafluoropropyl]carbamic acid methyl ester] |  |  |  | 100 | 100 | 100
5 | NC(=Nc1c(Cl)cc(C(F)(F)F)cc1Cl)C(F)(F)Cl [present compound 5, 2-Chloro-N-(2,6-dichloro-4-trifluoromethylphenyl)-2,2-difluoroacetamidine] | 100 | 100 | 100 |  |  | 
6 | CCNC(=Nc1c([N+](=O)[O-])cc(C(F)(F)F)cc1[N+](=O)[O-])C(Cl)Cl [present compound 59, 2,2-Dichloro-N′-(2,6-dinitro-4-trifluoromethylphenyl)-N-ethylacetamidine] |  | 100 | 100 |  |  | 
7 | NC(=Nc1c([N+](=O)[O-])cc(C(F)(C(F)(F)F)C(F)(F)F)cc1[N+](=O)[O-])C(F)(F)C(F)(F)C(F)(F)F [present compound 50, N-{2,6-Dinitro-4-(1,2,2,2-tetrafluoro-1-trifluoromethylethyl)phenyl}-2,2,3,3,4,4,4-heptafluorobutyramidine] |  | 100 | 100 |  |  | 
8 | NC(=Nc1c(Cl)cc(C(F)(F)F)cc1Cl)C(F)(F)C(F)(F)C(F)(F)C(F)(F)F [present compound 30, N-(2,6-Dichloro-4-trifluoromethylphenyl)-2,2,3,3,4,4,5,5,5-nonafluoropentanamidine] |  |  |  |  | 100 | 100
9 | NC(=Nc1c(Cl)cc(C(F)(F)F)cc1Cl)C(F)(F)C(F)F [present compound 20, N-(2,6-Dichloro-4-trifluoromethylphenyl)-2,2,3,3-tetrafluoropropionamidine] | 100 | 100 | 100 |  |  | 
10 | NC(=Nc1c([N+](=O)[O-])cc(C(F)(F)F)cc1[N+](=O)[O-])C(F)(F)C(F)(F)Br [present compound 39, 3-Bromo-N-(2,6-dinitro-4-trifluoromethylphenyl)-2,2,3,3-tetrafluoropropionamidine] | 100 | 100 | 100 |  |  | 
11 | NC(=Nc1c([N+](=O)[O-])cc(C(F)(F)C(F)(F)C(F)(F)F)cc1[N+](=O)[O-])C(F)(F)C(F)(F)C(F)(F)F [present compound 48, N-(2,6-Dinitro-4-heptafluoropropylphenyl)-2,2,3,3,4,4,4-heptafluorobutyramidine] |  |  | 100 |  |  | 
12 | NC(=Nc1c([N+](=O)[O-])cc(C(F)(F)F)cc1[N+](=O)[O-])C(F)(F)C(F)(F)Cl [present compound 35, 3-Chloro-N-(2,6-dinitro-4-trifluoromethylphenyl)-2,2,3,3-tetrafluoropropionamidine] | 100 | 100 | 100 |  |  | 
13 | NC(=Nc1c([N+](=O)[O-])cc(C(F)(F)F)cc1[N+](=O)[O-])C(F)(F)C(F)(F)F [present compound 6, N-(2,6-Dinitro-4-trifluoromethylphenyl)-2,2,3,3,3-pentafluoropropionamidine] | 100 | 100 | 100 |  |  | 
14 | NC(=Nc1c(Cl)cc(C(F)(F)F)cc1Cl)C(F)(F)C(F)(F)C(F)(F)F [present compound 11, N-(2,6-Dichloro-4-trifluoromethylphenyl)-2,2,3,3,4,4,4-heptafluorobutyramidine] |  |  |  | 100 | 100 | 100
15 | NC(=Nc1c([N+](=O)[O-])cc(C(F)(F)F)cc1[N+](=O)[O-])C(F)(Cl)Cl [present compound 34, 2,2-Dichloro-N-(2,6-dinitro-4-trifluoromethylphenyl)-2-fluoroacetamidine] | 100 | 100 | 100 |  |  | 
16 | CCN(CC)C(=Nc1c(Cl)cc(C(F)(F)F)cc1Cl)C(F)(F)F [present compound 57, N′-(2,6-Dichloro-4-trifluoromethylphenyl)-N,N-diethyl-2,2,2-trifluoroacetamidine] |  | 100 | 100 |  |  | 
17 | CCCN(CCC)C(=Nc1c(Cl)cc(C(F)(F)F)cc1Cl)C(F)(F)F [present compound 56, N′-(2,6-dichloro-4-trifluoromethylphenyl)-2,2,2-trifluoro-N,N-dipropylacetamidine] |  | 100 |  |  |  | 
18 | NC(=Nc1c([N+](=O)[O-])cc(C(F)(F)F)cc1[N+](=O)[O-])C(F)(Br)C(F)(F)F (stereo not shown) [present compound 29, 2-Bromo-N-(2,6-dinitro-4-trifluoromethylphenyl)-2,3,3,3-tetrafluoropropionamidine] | 100 | 100 | 100 |  |  | 
19 | CC(=O)NC(=Nc1c(Cl)cc(C(F)(F)F)cc1Cl)C(F)(F)C(F)(F)F [present compound 61, N-[1-(2,6-dichloro-4-trifluoromethylphenylimino)-2,2,3,3,3-pentafluoropropyl]-acetamide] | 100 | 100 | 100 |  |  | 
20 | NC(=Nc1c(Br)cc(C(F)(F)F)cc1Br)C(F)(F)C(F)(F)F [present compound 17, N-(2,6-Dibromo-4-trifluoromethylphenyl)-2,2,3,3,3-pentafluoropropionamidine] | 100 | 100 | 100 |  |  | 
21 | NC(=Nc1c(Cl)cc(C(F)(F)F)cc1Cl)C(F)(F)F [present compound 3, N-(2,6-Dichloro-4-trifluoromethylphenyl)-2,2,2-trifluoroacetamidine] | 100 | 100 | 100 |  |  | 
22 | NC(=Nc1c([N+](=O)[O-])cc(C(F)(F)C(F)(F)F)cc1[N+](=O)[O-])C(F)(F)C(F)(F)F [present compound 43, N-(2,6-Dinitro-4-pentafluoroethylphenyl)-2,2,3,3,3-pentafluoropropionamidine] | 100 | 100 | 100 |  |  | 
23 | NC(=Nc1c(Cl)cc(C(F)(F)F)cc1[N+](=O)[O-])C(F)(F)F [present compound 1, N-(2-chloro-6-nitro-4-trifluoromethylphenyl)-2,2,2-trifluoroacetamidine] | 100 | 100 |  |  |  | 
24 | CCNC(=Nc1c(Cl)cc(C(F)(F)F)cc1Cl)C(Cl)Cl [present compound 58, N′-(2,6-Dichloro-4-trifluoromethylphenyl)-2,2-dichloro-N-ethylacetamidine] |  | 100 | 100 |  |  | 
25 | NC(=Nc1c(F)cc(C(F)(F)F)cc1F)C(F)(F)F [present compound 2, N-(2,6-Difluoro-4-trifluoromethylphenyl)-2,2,2-trifluoroacetamidine] | 100 | 100 |  |  |  | 
26 | NC(=Nc1c([N+](=O)[O-])cc(C(F)(F)C(F)(F)C(F)(F)F)cc1[N+](=O)[O-])C(F)(F)F [present compound 49, N-(2,6-Dinitro-4-heptafluoropropylphenyl)-2,2,2-trifluoroacetamidine] |  | 100 | 100 |  |  | 
27 | NC(=Nc1c([N+](=O)[O-])cc(C(F)(F)F)cc1[N+](=O)[O-])C(F)(F)F [present compound 33, N-(2,6-Dinitro-4-trifluoromethylphenyl)-2,2,2-trifluoroacetamidine] | 100 | 100 |  |  |  | 
28 | NC(=Nc1c(Cl)cc(C(F)(F)F)cc1Cl)C(F)(F)C(F)(F)C(F)(F)C(F)(F)C(F)(F)F [present compound 31, N-(2,6-Dichloro-4-trifluoromethylphenyl)-2,2,3,3,4,4,5,5,6,6,6-undecafluorohexanamidine] |  |  |  |  |  | 100
29 | NC(=Nc1c(Cl)cc(C(F)(F)F)cc1Cl)C(F)F [present compound 7, N-(2,6-Dichloro-4-trifluoromethylphenyl)-2,2-difluoroacetamidine] | 100 | 100 |  |  |  | 
